pIC50: −log10 of the molar value.
Columns and labels:
[1] = test system: MAPK: ERK-1 (p44) and ERK-2 (p42); test: Estrogen-induced MAPK phosphorylation, Western blot in MCF-7 cells; assay type: cell-based, human; conditions: MCF-7 parent cells, 1 nM estradiol (E2); antagonists pre-incubated at 1000 nM; FIG. 7A
Protocol: ERD inhibition of phosphorylation of MAPK, at both extracellular signal-regulated kinases ERK-1 (p44) and ERK-2 (p42) and downstream effects. […] Thus, we measured estrogen-induced phosphorylation of MAPK by established methods (9,15,16). Briefly, MCF-7 parental cells were estrogen deprived for 48 hrs, then treated with 1 nM estradiol-1713 in the presence of new compounds (10 nM-10 μM) to be tested for antagonist activity. After treatments, cell lysates were separated by SDS-PAGE followed by Western blot using a polyclonal antibody directed to phospho-p44/p42 MAP kinase (Thr202/Tyr204) (Cell Signaling). Immunodetection with antibody against total p44/p42 (Cell Signaling) was done as a control for gel loading. […] ERD S15 was as effective as fulvestrant in inhibiting the rapid estrogen-induced MAPK phosphorylation in breast tumor cells in vitro. […] E2 but not vehicle (CN) induced rapid phosphorylation of ERK-1 (p44) and ERK-2 (p42). This activation was prevented when cells were pre-incubated with 1000 nM ICI 182,780 (ICI; Faslodex) or 1000 nM compound S15 in the presence of estradiol (E2).

A549 NSCLC cells = test: NSCLC cell proliferation in vitro (MTS assay); assay type: cell-based, human
MCF-7 parental cells = conditions: MCF-7 parental xenografts in nude mice; cited from earlier work
MCF-7/HER-2 cells = conditions: MCF-7 cells with HER2-overexpression, xenografts in nude mice; cited from earlier work
H1975 NSCLC cells = test: NSCLC cell proliferation in vitro (MTS assay); assay type: cell-based, human; conditions: Homo sapiens, NCI-H1975, SERD alone, 72 hours, estrogen-depleted phenol red-free medium with 5% DCC-FBS, read-out: IC50 for inhibition of NSCLC cell proliferation, H1975
Protocol: (§1) Cell culture: Human breast and non-small cell lung cancer cells (MCF7, ZR75-1, MDAMB231, A549, H23, H1975, […]) were from ATCC. MCF7-HER2 were a kind gift of Dr. Dennis Slamon (23). Cell lines were routinely maintained in RPMI 1640 or DMEM medium with 10% fetal bovine serum (FBS) (Sigma-Aldrich) and 1% Antibiotic-Antimycotic solution 100× (Mediatech, Herndon, Va.). When indicated, for estrogen-free conditions, media was changed 48 h before experiments to phenol-red free RPMI 1640/DMEM with 1% dextran-coated, charcoal-treated (DCC)-FBS (24,25). Otherwise experiments were performed in phenol-red free RPMI 1640/DMEM medium with 5% DCC-FBS.
(§2) Cell proliferation assays: breast and lung tumor cells (between […]) were plated in 96 well plates using their respective medium with 10% FBS. For experiments using estradiol-17β, cells were rinsed with PBS and incubated with phenol redfree medium with 1% DCC-FBS for 48 hours as described before (24,25). Cells were then treated with different concentrations of SERDs ranging between 0.0001-100 μM. […] Cell counts and viability tests (Trypan blue) were done every 24 hr for 3 days. After 72 hr, proliferation was assessed with the MTS Assay CELLTITER 96® Aqueous Cell Proliferation Assay (Promega) or the Cell Proliferation ELISA, BrdU colorimetric assay (Roche). For the MTS, the absorbance of the formazan product was measured at 490 nanometer using the iMARK microplate reader from BIORAD. The BrdU ELISA assay is based on detection of BrdU incorporated into the genomic DNA of proliferating cells and an anti-BrdU antibody, the reaction product was quantified by measuring the absorbance at 370 nanometers using iMARK microplate reader from BIORAD. Cell numbers were also assessed initially by cell counts to confirm MTS/BrdU data. Experiments were done at least three times to confirm data.

H2122 NSCLC cells = test: NSCLC cell proliferation in vitro (MTS assay); assay type: cell-based, human; conditions: Homo sapiens, NCI-H2122, SERD alone, 72 hours, estrogen-depleted phenol red-free medium with 5% DCC-FBS, read-out: IC50 for inhibition of NSCLC cell proliferation, H2122
Protocol: as §1, §2

[2] = test system: MCF-7 breast cancer cells; test: MCF-7 breast cancer cell proliferation (BrdU ELISA) in presence of estradiol-17β; assay type: cell-based, human; conditions: Homo sapiens, MCF7; 72 hrs in the presence of 1 nM estradiol-17β, BrdU ELISA; read-out: IC50 for inhibition of cell proliferation, MCF-7
Protocol: In experiments to assess potential proliferative effects of novel estrogen receptor ligands, human breast cancer cells were grown in phenol red-free, estrogen-free media with 1% dextran-coated charcoal-treated (DCC)-fetal bovine serum (FBS) for 48 hrs (15,44), then treated with either 1 μM or 50 μM doses of estrogen receptor antagonists in the presence of 1 nM estradiol-17β. Cell counts and viability tests (Trypan blue) were done every 24 hr for 3 days. After 72 hr, proliferation was assessed using the BrdU Cell proliferation ELISA (Roche). Cell numbers were also assessed initially by cell counts to confirm ELISA data. Each antiestrogen was tested at least in three different experiments.
In order to assess the antitumor action of novel estrogen receptor antagonists, we cultured human MCF-7 breast cancer cells with known expression of ERα. Cells were grown in 1% DCC-FBS for 48 hr and then treated with vehicle control or either 1 μM or 50 μM concentrations of antiestrogens JD 101-160 or the pure antiestrogen fulvestrant (FAS), all in the presence of 1 nM estradiol-170. […] Shown in FIG. 2A are results from MCF-7 cells grown in 1% DCC-FBS for 48 hr and then treated with vehicle control, 1 nM estradiol-170 and either 1 μM or 50 μM concentrations of antiestrogens JD 101-160 or the known pure antiestrogen fulvestrant (FAS) in the presence of 1 nM estradiol-170. Cell proliferation is expressed as percentage of that determined in the 1 nM estradiol-170-treated control group.
as §2

Rb serine-780 = Rb serine-780 phosphorylation, Western blot in A549 cells; assay type: cell-based, human; conditions: 24 h, 1% DCC-FBS, 1 nM E2, 1 nM androstenedione, 10 nM testosterone, 10 μM letrozole, 100 nM palbociclib, FIG. 4C
Protocol: FIG. 4C. […] Cells were treated 24 h in phenol red-free RPMI with 1% DCC-FBS with vehicle control (CON), 1 nM estradiol-17β (E2), 1 nM androstenedione (And), 10 nM testosterone (Tes), 10 μM letrozole (AI), 100 nM palbociclib (Plbo) or both Plbo+AI. After 24 hr, cell lysates subjected to Western blot with antibody to phosphoserine-780 Rb or total Rb (Cell Signaling) (20). GAPDH is used as loading control.
To investigate the antitumor efficacy of CDK 4/6 inhibitor palbociclib in NSCLC cells, we assessed the effects of palbociclib alone and in combination with the hormonal therapeutic letrozole (see FIGS. 4B and 5B). The potential mechanism of action of palbociclib and letrozole in NSCLC cells was investigated by assay of the effects of these agents alone and combined on phosphorylation of Rb serine-780

cyclin D1 = test: Cyclin D1 expression, Western immunoblot in A549 NSCLC cells; assay type: cell-based, human; conditions: 24 h, 1% DCC-FBS, letrozole 10 μM, FIG. 5B
Protocol: FIG. 5B. […] Cells were treated 24 h in phenol red-free RPMI with 1% DCC-FBS. Control (Con), estradiol-17β (E2; 1 nM), androstenedione (And; 1 nM), testosterone (Tst; 10 nM), letrozole (AI; 10 μM) and palbociclib (Plbo; 1 μM) were used in this experiment. GADPH is used as a loading control (20).

| SMILES | phosphorylation of MAPK (ERK-1 p44 and ERK-2 p42) [1] | pIC50 (A549 NSCLC cells; Homo sapiens, A549, SERD alone, 72 hours, estrogen-depleted phenol red-free medium with 5% DCC-FBS, MTS assay, read-out: IC50 for inhibition of NSCLC cell proliferation, A549) | growth of parent tumors (xenografts) (MCF-7 parental cells) | sensitivity of MCF-7/HER-2 xenografts (MCF-7/HER-2 cells) | pIC50 (H1975 NSCLC cells) | pIC50 (H2122 NSCLC cells) | pIC50 [2] | phosphorylation of Rb serine-780 (Rb serine-780) | cyclin D1 expression (cyclin D1) | inhibition of NSCLC cell proliferation (A549 NSCLC cells; A549, 72 hrs, single agents and palbociclib (10 or 100 nM)/letrozole (10 μM), FIG. 6B) |
| --- | --- | --- | --- | --- | --- | --- | --- | --- | --- | --- |
| C[C@]12CC[C@@H]3c4ccc(O)cc4C[C@@H](CCCCCCCCC[S+]([O-])CCCC(F)(F)C(F)(F)F)[C@H]3[C@@H]1CC[C@@H]2O (stereo partly shown) [FULVEST, fulvestrant, reference compound] | prevented | 5.38 | suppressed | partially sensitive | 5.73 | 5.89 | 5.95 | – | – | – |
| N#Cc1ccc(C(c2ccc(C#N)cc2)n2cncn2)cc1 [letrozole] | – | – | – | – | – | – | – | block | reduces cyclin D1 expression | dose-dependent inhibition |
